What was measured:
CJAS1 = assay: Inhibitor effects on induction/expression of CJAS1; assay type: in vivo, B. carinata; conditions: data not shown; for CJAS1 transcript accumulation: non-induced material
Experimental: The effects of the nitric oxide (NO) scavenger 2-phenyl-4,4,5,5-tetramethylimidazolinone-3-oxide-1-oxyl (PTIO), the protein phosphatase type 1 and 2A inhibitor okadaic acid (OKA), the serine/threonine protein kinases inhibitor staurosporine (STAU) and the protein translation inhibitor cycloheximide (CHX) were determined on induction/expression of CJAS1 in B. carinata.

CJAS1 gene = CJAS1 gene expression by Northern blot after treatments; assay type: in vivo, B. carinata; conditions: treatment of wild-type Brassica plants; data not shown
Text: CJAS1 gene expression was studied via Northern blot of various plant tissues taken from wild-type Brassica plants (data not shown). […] The amount of transcript in flower bud and silique was slightly greater than in the other tissues. […] The rapid response to Cu and MeJA implies a control mechanism sensitive to membrane damage. The activation of CJAS1 transcription by the four different compounds is unusual but not without precedent.

B. carinata = assay: Visual characterization of seed coat color of transformed B. carinata; assay type: in vivo
Text: The plant transformation vectors carrying the antisense genes made with the defense-related cDNAs were used for plant transformation. The plant species used for transformation was a selection of B. carinata, the same selection that was originally treated with Copper chloride. This selection of B. carinata has dark-colored, thick seed coats. For transformation, Agrobacterium tumifaciens strain GV3101/pMP90 (C. Koncz and J. Schell, 1986, Mol. Gen. Genet. 204:383-396) was used. The transformation vectors were introduced into the Agrobacterium strain using standard techniques. Plant explants were co-cultured for three days then transferred to selective media. Plants were selected on kanamycin.
Transformed B. carinata were analyzed by visual characterization. […] A sample comparison of seeds obtained from wild-type B. carinata and transgenic B. carinata expressing antisense CJAS1 (SEQ ID NO:1) is shown in FIG. 2a and FIG. 2b.

[1] = tested on: Escherichia coli GMP synthetase mutant ght1; assay: Complementation of Escherichia coli GMP synthetase mutant ght1; assay type: cell-based; conditions: cDNA in expression vector
Text: Thus, it is postulated that the protein encodes an amidotransferase activity distinct from GMP synthase that utilizes an aromatic compound for a substrate. This is analogous to a similar step seen for the phenylpropanoid pathway, another pathway that is involved in the formation of fiber (and the seed coat) and is a pathway that utilizes aromatic compounds. In the phenylpropanoid pathway, L-phenyalanine, an aromatic amino acid, is a substrate for the enzyme phenyalanine ammonia lyase (PAL). The enzymatic activity of PAL leads to the formation of cinnamic acid by deamination which eventually leads to the formation of lignin monomers. In the present case, CJAS1 may be a subunit of an enzyme that encodes a […] activity utilized within another secondary metabolite pathway and reduction of the enzyme activity (as evidenced by antisense RNA inhibition of the gene expression) can lead to alteration in the formation of phenolic-related compounds. This alteration may further affect the formation of other compounds in the seed, in particular, compounds that are known to be related to fiber formation.

Row | Molecule | CJAS1 transcript accumulation (CJAS1) | amount of CJAS1 transcript (CJAS1 gene) | also measured
1 | CC1(C)N([O])C(c2ccccc2)=[N+]([O-])C1(C)C [PTIO, 2-phenyl-4,4,5,5-tetramethylimidazolinone-3-oxide-1-oxyl] | increased |  | 
2 | C=C1[C@@H](O)[C@@H]2O[C@]3(CC[C@H](/C=C/[C@@H](C)[C@@H]4CC(C)=C[C@@]5(O[C@H](C[C@@](C)(O)C(=O)O)CC[C@H]5O)O4)O3)CC[C@H]2O[C@@H]1[C@@H](O)C[C@H](C)[C@H]1O[C@@]2(CCCCO2)CC[C@H]1C [OKA, okadaic acid] | increased |  | 
3 | C[C@@H]1C[C@@H]([C@H](O)CC2CC(=O)NC(=O)C2)C(=O)[C@@H](C)C1 [cycloheximide] | increased |  | 
4 | [Cl][Cu][Cl] [Cu, copper chloride] |  | further increased | 
5 | CN[C@@H]1C[C@H]2O[C@@](C)([C@@H]1OC)n1c3ccccc3c3c4c(c5c6ccccc6n2c5c31)C(=O)NC4 [STAU, staurosporine] | increased |  | interaction with MeJA in induction of CJAS1 expression (CJAS1; with MeJA): acted synergistically
6 | O=C(O)c1ccccc1O [SA] |  | further increased | 
7 | CC1=CC(=O)CC(C)(C)C1(O)/C=C/C(C)=C\C(=O)O (stereo not drawn) [ABA] |  | further increased | 
8 | CC/C=C\CC1C(=O)CCC1CC(=O)OC (stereo not drawn) [MeJA] |  | further increased | 
9 | CJAS1 cDNA: copper chloride-induced cDNA from B. carinata, expressed in antisense orientation from a double 35S promoter (nucleic acid, listed as Brassica carinata) DNA: ATTGCACCTCTCTCTTTATTCTCTCTCTGCTAATCAACCACTCTCTCTATTTACGTTAGCCGGTAAAAAAATGGTTGAGCAGAAAAAGTTCGCTCTGTTTCTAGCGACTCCTGATTCAGAGTTCGTGAAGAAAGAGTACGGAGGATACCACAACGTGTTCGTGTCCACGTTCGGTGACGAAGGAGAGCATTGGGACTCGTTTAGAGTCGTTGAAGGCGAGTTTCCCGACGAGAAAGATCTTGACAAGTACGACGGTTTCGTTATTAGTGGAAGCTCTCACGATTCCTTCGAGAATGATCCTTGGATCCTTAGGCTATGTGAGATCGTCAAGATACTCGATGAGAAGAAGAAGAAAATTCTTGGCATATGCTTTGGTCACCAGATCATAGCCAGAGTAAGAGGAGGAACAGTGGGAAGAGCAAGGAAGGGACCAGAACTTAAGCTTACAGACATAACCATCGTGAAGGATGCGATTAAACCAGGAAGTTTCTTCGGAAACGAGATTCCGGATAGCATAGCCATCCTAAAGTTACATCAGGACGAAGTGTTAGTGTTGCCTGAATCTGCTAAAGTACTAGCTTATTCAGAAAAGTACGAGGTGGAGATGTTCTCCATTGAGGATCATTTATTCTGTATTCAAGGACATCCCGAGTATAACAGAGAGATTCTCCACGAGATCGTTGATCGTGTTCTTCGTCTTGGCTTCATCAAGGAAGATTTTGCGGATGCGGCAAAAGCCTCGATGGAGAATAGGGGAGCAGACAGGAAACTTTTGGAGACGATTTGCAAGAATTTTCTCAAAGGCAGAGTTCCAGCTAATTAATTAGTTTCACTCCCAAATTATCTATTTGGCTCTTGTTATATTGGAGCTAGCACTTATGGATTTATTATCTTGCTGTATTGTATTCAATATATAACCTATTAATCTCATCCTTGTCAAGGAAACAAAAACTCATATTAATCTCAATGTCATATTTATGTGTTGTTACCCATAAGTAAAATTATTCAATAAAAACTATAGTTTTGCAAAAAAAAAAAAAAAAA |  |  | transformants producing a lighter-colored (yellow) seed (B. carinata; CJAS1 cDNA antisense): over 50%; seed coat color of transformed plants (B. carinata; antisense orientation, 35S promoter, B. carinata): yellow-colored seed coats; complementation of GMP synthetase mutant [1]: no complementation was observed

Source: patent US7524943B2, “Method for the production of plant seed with modified fiber content and modified seed coat” (National Research Council of Canada, priority 2001, dated 2009)
